{"source": "paper PMC9298352", "about": "“Design, Synthesis and Structural Analysis of Glucocerebrosidase Imaging Agents” (Chemistry (Weinheim an Der Bergstrasse, Germany), 2021)", "key": {"[1]": {"target": "T1, human GBA2 (from lysates of GBA2 overexpressed cells) (Homo sapiens, UniProt Q9HCG7)", "T1 construct": "expressed in transfected cells; host or cells: HEK293T", "T1 sequence (Q9HCG7 1-927)": "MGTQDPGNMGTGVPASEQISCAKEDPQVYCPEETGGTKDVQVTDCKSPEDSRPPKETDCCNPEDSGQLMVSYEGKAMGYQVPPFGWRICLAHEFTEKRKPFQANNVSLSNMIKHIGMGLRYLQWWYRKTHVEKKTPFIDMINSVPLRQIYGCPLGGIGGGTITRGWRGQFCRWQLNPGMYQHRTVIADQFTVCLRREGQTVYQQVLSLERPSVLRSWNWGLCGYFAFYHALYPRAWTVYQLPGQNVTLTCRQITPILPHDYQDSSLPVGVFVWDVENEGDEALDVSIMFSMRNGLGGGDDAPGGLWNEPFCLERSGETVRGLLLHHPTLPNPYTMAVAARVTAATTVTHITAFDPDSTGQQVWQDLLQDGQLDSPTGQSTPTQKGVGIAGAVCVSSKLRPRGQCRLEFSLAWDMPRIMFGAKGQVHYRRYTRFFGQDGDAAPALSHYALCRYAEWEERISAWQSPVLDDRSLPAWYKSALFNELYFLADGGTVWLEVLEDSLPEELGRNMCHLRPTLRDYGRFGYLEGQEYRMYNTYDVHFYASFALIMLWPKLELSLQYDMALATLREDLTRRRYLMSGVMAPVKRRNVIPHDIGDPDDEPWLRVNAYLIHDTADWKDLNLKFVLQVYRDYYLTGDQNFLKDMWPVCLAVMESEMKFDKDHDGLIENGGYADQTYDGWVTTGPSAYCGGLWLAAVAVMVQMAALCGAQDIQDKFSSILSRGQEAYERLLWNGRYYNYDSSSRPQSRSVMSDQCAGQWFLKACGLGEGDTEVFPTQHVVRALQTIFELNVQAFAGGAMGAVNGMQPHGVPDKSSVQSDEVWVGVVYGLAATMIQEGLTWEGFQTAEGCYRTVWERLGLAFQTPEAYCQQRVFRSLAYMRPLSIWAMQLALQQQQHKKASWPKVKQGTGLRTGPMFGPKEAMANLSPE", "experiment": "In vitro apparent IC50, fluorogenic substrate assay on GBA2 in lysates of overexpressing cells", "assay_type": "biochemical", "experimental": "All assays were performed in duplicate sets, each with 3 technical replicates at each inhibitor concentration. DMSO concentration was kept at 0.5 %–1 % (v/v) in all assays during incubation with compounds. In vitro apparent IC50 values were calculated by fitting data with [inhibitor] vs. response‐various slope (four parameters) function using Graphpad Prism 7.0 software. Average values and standard deviations were calculated from the two sets."}, "[2]": {"target": "T2, GBA2 in mouse brain lysate (Mus musculus, UniProt Q69ZF3)", "T2 construct": "from tissue; host or cells: mouse brain", "T2 sequence (Q69ZF3 1-918)": "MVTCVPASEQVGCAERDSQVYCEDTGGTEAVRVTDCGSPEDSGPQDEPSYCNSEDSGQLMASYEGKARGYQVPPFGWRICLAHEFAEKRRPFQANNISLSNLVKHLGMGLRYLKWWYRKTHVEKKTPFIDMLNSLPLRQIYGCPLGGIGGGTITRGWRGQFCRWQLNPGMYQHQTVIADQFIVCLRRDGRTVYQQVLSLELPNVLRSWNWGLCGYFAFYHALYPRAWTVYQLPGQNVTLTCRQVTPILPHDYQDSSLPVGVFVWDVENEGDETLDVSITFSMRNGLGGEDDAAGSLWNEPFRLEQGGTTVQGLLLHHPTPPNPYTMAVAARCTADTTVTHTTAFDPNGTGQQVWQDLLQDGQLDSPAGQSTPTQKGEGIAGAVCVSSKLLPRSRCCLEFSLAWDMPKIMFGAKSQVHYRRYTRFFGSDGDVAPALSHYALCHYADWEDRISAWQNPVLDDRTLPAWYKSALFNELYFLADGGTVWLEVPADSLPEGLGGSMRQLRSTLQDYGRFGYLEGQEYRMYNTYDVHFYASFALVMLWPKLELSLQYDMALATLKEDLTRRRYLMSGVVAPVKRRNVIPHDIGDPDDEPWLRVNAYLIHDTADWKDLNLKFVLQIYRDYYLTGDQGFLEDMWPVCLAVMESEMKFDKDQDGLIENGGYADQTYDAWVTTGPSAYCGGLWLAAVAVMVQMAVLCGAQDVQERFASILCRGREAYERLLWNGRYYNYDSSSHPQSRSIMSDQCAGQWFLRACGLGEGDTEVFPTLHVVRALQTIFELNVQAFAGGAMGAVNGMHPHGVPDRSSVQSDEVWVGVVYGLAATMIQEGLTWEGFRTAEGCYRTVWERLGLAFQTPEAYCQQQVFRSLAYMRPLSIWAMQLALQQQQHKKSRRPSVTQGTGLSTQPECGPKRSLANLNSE", "experiment": "Fluorescent labeling of mouse brain lysate, GBA2", "assay_type": "biochemical", "conditions": "30 min, 37 °C", "experimental": "We next investigated their labeling efficiency and selectivity toward GBA in mouse brain lysate at pH 5.2 (containing 0.2 % taurocholate and 0.1 % Triton‐100) and pH 5.8 as respective optimal conditions for GBA and GBA2 activities (Figure 7). […] Importantly, no labelling of GBA2 was observed up to 1000 nM, showing good GBA selectivity.\nLabeling by broad‐spectrum β‐glucosidase ABP 8 is shown for comparison (100 nM, pH 5.2 or pH 5.8, 30 min, 37 °C).\nFluorescent labeling with broad‐spectrum ABP 8 was performed at 100 nM ABP concentration at 37 °C for 30 min at pH 5.2 (with 0.1 % (v/v) Triton X‐100 and 0.2 % (w/v) sodium taurocholate) or pH 5.8 respectively. Samples were then denatured with 4 μL Laemmli (5x) sample buffer and heated at 98 °C for 5 minutes. Proteins were resolved by electrophoresis in 10 % SDS‐PAGE gels, running at a constant of 90 V for 30 minutes followed by 120 V for approximately 60 minutes. Wet slab gels were scanned on fluorescence using a Typhoon FLA9500 Imager (GE Healthcare) using λEX 635 nm; λEM >665 nm and images were processed using ImageLab 5.2.1 (BioRad)."}}, "data": [{"molecule": "CCCCCCCCN1[C@@H]2[C@H](Cn3cc(CNC(=O)CCCCC[N+]4=C(/C=C/C=C/C=C5/N(C)c6ccccc6C5(C)C)C(C)(C)c5ccccc54)nn3)[C@@H](O)[C@H](O)[C@@H](O)[C@@H]21", "note": "(some centres unmarked) [ABP 6]", "values": [{"measurement": "IC50", "setting": "[1]", "value": "> 100", "unit": "µM"}, {"measurement": "ABP concentration up to which no labelling of GBA2 was observed", "setting": "[2]", "value": "> 1000", "unit": "nM"}]}]}
